Data on three compounds can be found in US20040219201A1, “Tempamine compositions and methods of use” (priority 2001, published 2004).

Read-outs that look alike come from different tables or passages of the source.

Data set [1] concerns MCF-7 (human breast adenocarcinoma). The data set can be described thus: Cytotoxicity assay (methylene blue); nitroxides alone or doxorubicin plus tempamine. Type of data set: cell-based. As to conditions: for IC50: Homo sapiens. On the procedure: (§1) As described in Example 1, the cytotoxicity of tempamine was determined on three cell lines, MCF-7 (human breast adenocarcinoma), M-109S (doxorubicin-sensitive human breast carcinoma), and M-109R (doxorubicin-resistant human breast carcinoma). The effect of free tempamine on cell proliferation was determined by a methylene blue assay as described in Example 1B.
FIG. 4 is a plot comparing the percent survival of MCF-7 human breast carcinoma cells at various doses of tempamine (closed circles) and tempol (open circles) in vitro. The cells were analyzed after 72 hours of exposure to the nitroxides. Tempamine and tempol cell growth inhibitory activities were of similar magnitude.
(§2) In yet another aspect, the invention contemplates administration of tempamine in combination with chemotherapeutic agent. […] Doxorubicin was chosen as a model chemotherpeutic agent. The enhancement of doxorubicin cytotoxicity by tempamine was tested on three cell lines, as described in Example 1A. A cytotoxicity assay as described in Example 1B was used. Two of the cell lines, MCF-7 and M-109S, were doxorubicin-sensitive lines and one cell line, M-109R, was doxorubicin resistant. MCF-7 cells are more sensitive to tempamine (100 μM caused 75% growth inhibition), but are less sensitive to doxorubicin, than are M-109S cells.
(§3) MCF-7 (human breast adenocarcinoma), M-109S (doxorubicin-sensitive human breast carcinoma), and M-109R (doxorubicin-resistant human breast carcinoma) were maintained in RPMI medium (Biological Industries, Beit HaEmek, Israel) supplemented with 10% fetal calf serum (FCS). The cell lines were maintained under standard culture conditions at 37° C. in a humidified 5% CO2 atmosphere.
(§4) The effect of tempamine on cell proliferation was determined by the methylene blue assay (Horowitz, A. T., et al., Biochim BiophysActa. 1109:203, (1992)). Briefly, cells were seeded onto 96-well plates (MCF cells at a density of 6×10^3 cells per well, and M-109S and M-109R at a density of 1.5×10^3 cells per well) and allowed to grow for 24 hours prior to treatment with different concentrations of tempamine. After the addition of tempamine (5×10^−5 to 4×10^−4), the cells were incubated in RPMI +10% FCS for four days without change of medium. Then the cells were fixed with 2.5% glutaraldehyde, stained with methylene blue and assayed spectrophotometrically.

In data set [2] the test system is M-109S (doxorubicin-sensitive human breast carcinoma). As to the kind of experiment: Cytotoxicity assay (methylene blue); tempamine alone or doxorubicin plus tempamine. Format: cell-based. The note with it: M-109S; for IC50: Homo sapiens. As for the experimental part: as §1, §2, §3, §4
For data set [3] the following is noted: Samuni et al. 1997; cited from earlier work.

What is called IC50 is the concentration that inhibits the measured activity by half. As to `COc1cccc2c1C(=O)c1c(O)c3c(c(O)c1C2=O)C[C@@](O)(C(=O)CO)C[C@@H]3O[C@H]1C[C@H](N)[C@H](O)[C@H](C)O1` [doxorubicin], the IC50 in data set [1] (MCF7, read-out: IC50 of Doxorubicin (nM) in the presence of 200 μM tempamine, MCF-7) stood at 55 ± 4.1 nM; in data set [1] (MCF7, MCF-7, read-out: IC50 of Doxorubicin (nM) in the presence of 0 μM tempamine), 487 ± 32 nM; in data set [1] (MCF7, MCF-7, read-out: IC50 of Doxorubicin (nM) in the presence of 50 μM tempamine) it was 475 ± 38 nM; in data set [1] (MCF7, MCF-7, read-out: IC50 of Doxorubicin (nM) in the presence of 100 μM tempamine), 67 ± 5.8 nM; in data set [2] (read-out: IC50 of Doxorubicin (nM) in the presence of 200 μM tempamine), 18 ± 1.1 nM; in data set [2] (read-out: IC50 of Doxorubicin (nM) in the presence of 0 μM tempamine) it was 60 ± 4 nM. Further, the IC50 in data set [2] (read-out: IC50 of Doxorubicin (nM) in the presence of 100 μM tempamine) was determined as 27 ± 1.7 nM. Moreover, the “change of IC50 value of doxorubicin” value in data set [1] (MCF-7, in the presence of 100 μM TMN) is on record as “decreased by one order of magnitude”. For the same compound, the “observed IC50 of doxorubicin decreased to” value in data set [2] (addition of 100-200 μM tempamine) is recorded as 50%.

`CC1(C)CCCC(C)(C)N1[O]` [TEMPO]: in data set [3], the “affinity to n-octanol versus aqueous phase” value is listed as “much higher affinity to n-octanol than to the aqueous phase”.

`CC1(C)CC(O)CC(C)(C)N1[O]` [tempol]: in data set [1] (MCF7, 72 h, read-out: IC50 (cell growth inhibition)), the concentration for half-maximal inhibition (IC50) was determined as 320000 nM. Moreover, the “affinity to n-octanol versus aqueous phase” value in data set [3] is given as “much higher affinity to n-octanol than to the aqueous phase”.
